Data: US5336485A, “Method for protecting animals against tacrine induced cytotoxic injury using sterol compounds” (priority 1993, dated 1994)
Structures can show the parent of a compound that is named as a salt. Where two headings read alike, the source gives them in different places.

How the values were obtained:
liver = experiment: CCl4 induced hepatotoxicity in rats (serum AST/ALT); type: in vivo, rat; conditions: for protection against CCl4 hepatotoxicity (in words): rats, serum enzyme levels
Procedure: In vivo experiments were performed to determine if alpha-TS administration protects the liver from chemical toxicity. The liver is the target organ for CCl4. CCl4 is a hepatotoxic agent that induces centrilobular liver necrosis through its metabolism to free radicals. Male Sprague-Dawley rats were given an intraperitoneal dose (100 mg/kg) of a tocopherol analog 24 hours prior to a CCl4 challenge (2.9g/kg given by oral garage). Forty eight hours after the challenge, the rats were sacrificed and the levels of aspartate aminotransferase (AST) and alanine aminotransferase (ALT) were measured.
As discussed above, SGOT levels provide a clinical assessment of hepatotoxicity (liver damage).
Succinate analogs were administered to male Sprague-Dawley rats 20 hours prior to a 1 g CCl4 /kg body weight oral challenge and the AST and ALT serum enzyme levels were measured 48 hours after the challenge.
Similar to the experiments were described above, the ionizable congeners were administered to Sprague-Dawley rats by i.p. injection of a 100 mg ionizable congener/kg body weight dose 20 hours prior to oral administration of a 1 g/kg dose of CCl4, and the AST and ALT levels were measured 48 hours after the CCl4 challenge.

male Sprague-Dawley rats = experiment: CCl4 induced lethality in rats; type: in vivo, rat; conditions: 1 g/kg
Procedure: The in vivo effect of alpha-TS was tested by administering a lethal oral dose of carbon tetrachloride (CC14) to male Sprague-Dawley rats.
In the experiment described in Table 3, a single dose of alpha-TS dissolved in peanut oil:ethanol (3:2) was given to male Sprague-Dawley rats. The dose was given 24 hours prior to an orally administered CCl4 challenge dissolved in peanut oil. Two to nine animals were tested per treatment. The control group comprised rats pretreated with the vehicle only. Survival was monitored for at least 7 days after the toxic insult.
In vivo experiments were performed to determine if the time the ionizable tocopherol analog (alpha-TS) is administered affects the cytoprotective functions. Male Sprague-Dawley rats were given a 100 mg/kg intraperitoneal dose of a tocopherol or succinate analog and were given a lethal dose of CCl4 (2.9g/kg by oral gavage). Table 7 contrasts the times of administration of the tocopherol or succinate analog and the times of administration of the lethal dose of CCl4 with the survival of the rats in the study (3to 6 rats per protective treatment).
Several tocopherol and succinate analogs were tested for CCl4 induced lethality. A single dose of the tocopherol or succinate analog was administered twenty four hours prior to orally administering 2.9 g CCl4 /kg body weight. Three to six animals were analyzed per treatment. The rats were monitored for seven days. […]

[1] = 100 mg/kg ip, 48 h after 1 g/kg CCl4 (Table 37)
[2] = 100 mg/kg ip (dihydrocholesterol 80 + sodium sulfate 30 mg/kg), 48 h after 1 g/kg CCl4 (Table 35)
[3] = 100 mg/kg ip, 48 h after 1 g/kg CCl4 (Table 31)
[4] = 100 mg/kg ip, 48 h after 1 g/kg CCl4 (Table 38)
[5] = 100 mg/kg ip, peanut oil vehicle, 48 h after 1 g/kg CCl4 (Table 39)
[6] = 100 mg/kg ip, 48 h after 1 g/kg CCl4 (Table 33)
[7] = Rattus norvegicus, ip, 48 h, read-out: % Hepatoprotection
[8] = 50 mg/kg ip, 48 h after 1 g/kg CCl4 (Table 41)
[9] = 100 mg/kg ip, 48 h after 1 g/kg CCl4 (Table 40)
[10] = 100 mg/kg ip, 48 h after 1 g/kg CCl4 (Table 42)

## C/C(=C\CO)CCC[C@H](C)CCC[C@H](C)CCCC(C)C [Phytol, reference compound]
liver; [1]
  ALT: 2.82 ± 0.54 10^3 units/L
  AST: 4.71 ± 1.00 10^3 units/L
liver
  protection against CCl4 hepatotoxicity (in words): generally not protective

## CCCCC/C=C\C/C=C\CCCCCCCCO [Linoleyl alcohol, reference compound]
liver; [2]
  ALT: 5.45 ± 1.10 10^3 units/L
  AST: 15.60 ± 2.98 10^3 units/L
liver
  protection against CCl4 hepatotoxicity (in words): potentiates CCl4 toxicity

## CC(=O)O[C@H]1CC[C@@]2(C)C(=CC[C@H]3[C@@H]4CC[C@H]([C@H](C)CCCC(C)C)[C@@]4(C)CC[C@@H]32)C1 [Cholesterol acetate, reference compound]
liver; [3]
  ALT: 0.96 ± 0.32 10^3 units/L
  AST: 3.06 ± 1.06 10^3 units/L
liver
  protection against CCl4 hepatotoxicity (in words): provided no protection

## O=C(O)CCC(=O)O [Succinic Acid, Na Salt, reference compound]
Male Sprague-Dawley rats; 24 hours or 1 hour prior and daily thereafter
  Days Survived after CCl4: 2 days
Male Sprague-Dawley rats; single dose 24 h prior, CCl4 […]
  Days Survived After CCl4 Treatment: 2 days

## CC(C)[C@@H](C)/C=C/[C@@H](C)[C@H]1CC[C@H]2C3=CC=C4C[C@@H](O)CC[C@]4(C)[C@H]3CC[C@]12C [Ergosterol, reference compound]
liver; [4]
  ALT: 0.93 ± 0.48 10^3 units/L
  AST: 1.73 ± 0.58 10^3 units/L
liver; [5]
  ALT: 0.63 ± 0.45 10^3 units/L
  AST: 1.90 ± 0.73 10^3 units/L
liver
  protection against CCl4 hepatotoxicity (in words): cytoprotection from toxic CCl4 insults

## CC(C)CCC[C@@H](C)[C@H]1CC[C@H]2[C@@H]3CC=C4C[C@@H](OS(=O)(=O)O)CC[C@]4(C)[C@H]3CC[C@]12C [Cholesteryl 3-sulfate, sodium salt]
liver; [6]
  ALT: 0.240 ± .133 10^3 units/L
  AST: 0.86 ± 0.35 10^3 units/L
liver; [7]
  inhibition in vivo at 100 mg/kg: 90%
liver
  protection against CCl4 hepatotoxicity (in words): potent cytoprotective agents in vivo

## CC1=C(/C=C/C(C)=C/C=C/C(C)=C/C(=O)O)C(C)(C)CCC1 [Retinoic acid, reference compound]
liver; [8]
  ALT: 6.14 ± 0.74 10^3 units/L
  AST: 17.94 ± 0.71 10^3 units/L
liver; Rattus norvegicus, 50 mg/kg ip 20 h prior, 48 h after 1 g/kg CCl4, read-out: % Hepatoprotection
  inhibition in vivo at 50 mg/kg: -83%
liver
  protection against CCl4 hepatotoxicity (in words): potentiated CCl4 toxicity

## CC(C)[C@@H](C)/C=C/[C@@H](C)[C@H]1CC[C@H]2C3=CC=C4C[C@@H](OC(=O)CCC(=O)O)CC[C@]4(C)[C@H]3CC[C@]12C [Ergosterol succinate, tris salt]
liver; [4]
  ALT: 0.46 ± 0.25 10^3 units/L
  AST: 0.80 ± 0.28 10^3 units/L
liver; [7]
  inhibition in vivo at 100 mg/kg: 80%
liver
  protection against CCl4 hepatotoxicity (in words): protection against hepatotoxicity

## C[C@]12CC[C@@H]3c4ccc(OS(=O)(=O)O)cc4CC[C@H]3[C@@H]1CCC2=O [Estrone sulfate, potassium salt]
liver; ip, 100 mg/kg, 48 h
  ALT: 0.87 ± 0.59 10^3 units/L
  AST: 4.19 ± 2.75 10^3 units/L
liver
  protection against CCl4 hepatotoxicity (in words): slight cytoprotection

## CC(C)[C@@H](C)/C=C/[C@@H](C)[C@H]1CC[C@H]2C3=CC=C4C[C@@H](OS(=O)(=O)O)CC[C@]4(C)[C@H]3CC[C@]12C [Ergosterol sulfate, potassium salt]
liver; [4]
  ALT: 0.28 ± 0.37 10^3 units/L
  AST: 0.58 ± 0.53 10^3 units/L
liver; [7]
  inhibition in vivo at 100 mg/kg: 86%
liver
  protection against CCl4 hepatotoxicity (in words): protection against hepatotoxicity

## C/C(=C\COC(=O)CCC(=O)O)CCCC(C)CCCC(C)CCCC(C)C (centres unmarked) [Phytol succinate]
liver; [1]
  ALT: 1.70 ± 0.18 10^3 units/L
  AST: 3.29 ± 0.51 10^3 units/L
liver; Rattus norvegicus, 100 mg/kg ip 20 h prior, 48 h after 1 g/kg CCl4, read-out: % Hepatoprotection
  inhibition in vivo at 100 mg/kg: 27%
liver
  protection against CCl4 hepatotoxicity (in words): generally not protective

## C[C@]12CC[C@@H]3c4ccc(OC(=O)CCC(=O)O)cc4CC[C@H]3[C@@H]1CCC2=O [Estrone 3-Succinate]
liver; [9]
  ALT: 0.51 ± 0.56 10^3 units/L
  AST: 1.71 ± 1.00 10^3 units/L
liver; [10]
  ALT: 0.32 ± 0.12 10^3 units/L
  AST: 0.70 ± 0.20 10^3 units/L
liver
  protection against CCl4 hepatotoxicity (in words): slight cytoprotection
